Source: US6509163B1, “Methods of screening modulators of mammalian P2X7 purinergic receptors” (Glaxo Group Limited, priority 1997, dated 2003)

Columns and labels:
P2X7ΔC receptor = molecular target: T1, P2X7ΔC receptor (Rattus norvegicus, UniProt Q64663); assay: Whole-cell recordings in HEK293 cells transiently transfected with P2X7ΔC cDNA; assay type: cell-based; settings: 30 μM BzATP, normal solution, holding potential −70 mV, transiently transfected HEK cells, n=18
T1 construct: the resulting protein (P2X7ΔC) was P2X7 (1-418); expressed in transfected cells; host or cells: HEK293 (transient)
T1 sequence (Q64663 1-418): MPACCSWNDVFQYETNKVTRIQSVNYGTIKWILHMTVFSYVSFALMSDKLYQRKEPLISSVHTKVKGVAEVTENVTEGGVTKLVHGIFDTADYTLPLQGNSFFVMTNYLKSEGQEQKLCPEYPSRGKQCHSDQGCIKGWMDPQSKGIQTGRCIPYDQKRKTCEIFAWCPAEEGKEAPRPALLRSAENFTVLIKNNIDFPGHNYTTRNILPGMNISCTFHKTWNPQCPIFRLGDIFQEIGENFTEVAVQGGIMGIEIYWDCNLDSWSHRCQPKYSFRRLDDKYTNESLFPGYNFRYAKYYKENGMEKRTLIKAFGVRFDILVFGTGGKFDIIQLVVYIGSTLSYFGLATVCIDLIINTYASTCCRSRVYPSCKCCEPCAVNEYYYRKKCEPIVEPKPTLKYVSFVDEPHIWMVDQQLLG
From the text: A 440-base pair (bp) fragment of P2X7 was amplified with inosine-containing degenerate oligonucleotides from several peripheral autonomic ganglia (Buell et al, EMBO J. 15:55 (1996)). […] An additional 468 bp of 5′ cDNA was cloned by rapid amplification of cDNA ends-polymerase chain reaction (RACE-PCR; Life Technologies, Bethesda, MD) using poly(A)^+ RNA from the medial habenula. P2X7 receptor-specific sequences were amplified with two rounds of nested PCR, for which sense primers were […] and […] and antisense primers were […] and […]. A shared restriction site (Bgl II) permitted ligation of the RACE-PCR product and of the partial cDNA, yielding a construct that encoded the entire P2X7 protein. This chimera (GenBank accession number X95882) was expressed in pcDNA3 (Invitrogen, San Diego, Calif.), sequenced by fluorescent DNA sequencing (Perkin Elmer, Foster City, Calif.), and confirmed by isolation of other full-length P2X7 cDNAs from a rat brain cDNA library (Clontech, Palo Alto, Calif.). One of these included a stop codon 130 bp upstream from the ATG. The COOH-terminus was removed by excision of a Xcm I-Not I fragment, and the resulting protein (P2X7ΔC) was P2X7 (1-418). […]

P2X7 receptor = molecular target: T2, P2X7 receptor (Rattus norvegicus, UniProt Q64663); assay: Whole-cell recordings of agonist-evoked currents in HEK293 cells transfected with rat P2X7 cDNA (Example 2); assay type: cell-based; settings: inward currents, brief application (0.5 to 2 s)
T2 construct: yielding a construct that encoded the entire P2X7 protein; expressed in transfected cells
T2 sequence (Q64663 1-595): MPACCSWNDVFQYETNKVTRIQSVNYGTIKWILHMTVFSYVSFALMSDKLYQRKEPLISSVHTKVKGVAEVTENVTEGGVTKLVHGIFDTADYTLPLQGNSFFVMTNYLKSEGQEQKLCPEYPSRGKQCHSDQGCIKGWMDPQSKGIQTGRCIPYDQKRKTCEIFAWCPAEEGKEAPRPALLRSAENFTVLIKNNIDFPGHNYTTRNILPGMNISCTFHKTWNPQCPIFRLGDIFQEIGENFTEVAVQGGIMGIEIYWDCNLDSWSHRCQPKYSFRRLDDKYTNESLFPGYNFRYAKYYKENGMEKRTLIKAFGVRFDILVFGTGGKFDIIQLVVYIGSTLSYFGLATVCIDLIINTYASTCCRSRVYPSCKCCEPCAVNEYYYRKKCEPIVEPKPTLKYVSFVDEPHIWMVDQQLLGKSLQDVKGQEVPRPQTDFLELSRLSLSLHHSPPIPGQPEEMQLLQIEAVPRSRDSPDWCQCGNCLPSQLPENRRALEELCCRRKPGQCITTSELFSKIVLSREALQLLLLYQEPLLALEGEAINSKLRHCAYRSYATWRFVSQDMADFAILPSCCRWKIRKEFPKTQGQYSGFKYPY

- Current amplitude (mean±SEM) to BzATP (P2X7ΔC receptor): 590±95 pA
- agonist order of potency (P2X7 receptor): BzATP>>ATP>2MeSATP>ATP-γ-S>>ADP
SMILES: Nc1ncnc2c1ncn2[C@@H]1O[C@H](COP(=O)(O)OP(=O)(O)OP(=O)(O)O)[C@@H](OC(=O)c2ccc(C(=O)c3ccccc3)cc2)[C@H]1O [BzATP, 3′-O-(4-benzoyl)benzoyl ATP]
